According to patent US4122184A, “Benzimidazole insecticides” (priority 1977, dated 1978):

How the values were obtained:
[1] = tested on: Unidentified Green Leafhopper; assay: Field trial, stomach poison test; assay type: in vivo; parameters: key: mortality rating on a 0 to 9 scale
Procedure: (§1) Leaves from the infested plant are treated with different concentrations of the test compounds, either by spraying with a DeVilbiss Special Atomizer (5004) at 10 psi or by dipping the leaves in solutions containing the compound. The leaves are then allowed to air dry.
(§2) After the leaves have dryed, they are placed in plastic petri dishes (100 × 25 mm), then the insects are counted out into each dish, five or ten insects per dish depending on the number of insects available. There are one or two replicates and usually two or three rates with each compound. Mortality results are taken at 24, 48 and 72 hours. The rating scale is 0 to 9.
(§3) Using the above methods, field trials were carried out against species of 5 orders of insects. The results, which are summarized in the following tables, give the average mortality for the particular insect with a given benzimidazole for each concentration employed. […] These tables contain all results obtained during the summer trials.

[2] = tested on: Tarnished Plant Bug Adults; assay: Field trial, stomach poison test; assay type: in vivo; parameters: key: mortality rating on a 0 to 9 scale
Procedure: as §1, §2, §3

[3] = tested on: Striped Cucumber Beetle Adults; assay: Field trial, stomach poison test; assay type: in vivo; parameters: key: mortality rating on a 0 to 9 scale
Procedure: as §1, §2, §3

[4] = tested on: Southern Corn Rootworm Adults; assay: Field trial, stomach poison test; assay type: in vivo; parameters: key: mortality rating on a 0 to 9 scale
Procedure: as §1, §2, §3

Yellow Mealworm Larvae = assay: Field trial, topical application; assay type: in vivo; parameters: key: 0 = 0-10% mortality, 9 = 91-100% mortality (0-9 scale)
Procedure: (§4) The results are read at 24, 48, and 72 hours when applicable. The rating scale is 0 to 9 where 0 = 0-10 percent and 9 = 91-100 percent mortality.
(§5) In a variation of the above test, 1 microliter of a test solution containing a predetermined number of micrograms of benzimidazole was applied directly to larvae or adult insects.
as §3

[5] = tested on: Red-Legged Grasshopper Adults; assay: Field trial, contact poison test; assay type: in vivo
From the text: (§6) Infested plants are placed in 6 oz. prescription bottles filled with water to keep them from wilting. Cellucotton is wrapped around the plant stem and squeezed into the bottle neck to prevent the insects from drowning.
(§7) A DeVilbiss Special Atomizer (5004) is used at 10 psi to spray the test plant with different concentrations of compounds. The atomizer is held at arm's length to prevent blowing the insects off the host plant. After treating, the bottles are placed on a table covered with brown wrapping paper to catch the dead insects as they drop from the plant. The plants are spaced so the leaves or plants are not touching one another.
as §4, §3

[6] = tested on: Southern Corn Rootworm Adults; assay: Field trial, contact poison test; assay type: in vivo
From the text: as §6, §7, §4, §3

[7] = tested on: Two-Spotted Spider Mite (2-SSM); assay: Miticide test, acute mortality, foliar spray; assay type: in vivo, Tetranychus urticae
Procedure: Each 5 mg. sample of technical compound preweighed at Greenfield was dissolved in 2.5 ml. of acetone and diluted with 247.5 ml. of water containing a combination of […]
(§8) The treated cuttings were stored in the greenhouse for 24 hours before evaluation under a binocular disecting microscope in the laboratory. In evaluating the results of the miticide test, each treated cutting was removed from the test tube, observed for live and dead mites at 14 × magnification, and returned immediately to the test tube. A scale of 0-9 was used as before.
The test employing two-spotted spider mites was conducted in similar fashion except that the mites were maintained on squash seedlings or squash cuttings.

Squash Bug Adults = assay: Field trial, contact poison test; assay type: in vivo; parameters: key: 0-9 rating: 0 = 0-10% mortality, 9 = 91-100% mortality
From the text: as §6, §7, §4, §3

Meadow Spittlebug = assay: Field trial, stomach poison test; assay type: in vivo
Procedure: as §1, §2, §3

Aphids - Tulip Tree = assay: Field trial, stomach poison test; assay type: in vivo
Procedure: as §1, §2, §3

Aphids - Apple = assay: Field trial, stomach poison test; assay type: in vivo
Procedure: as §1, §2, §3

Aphids - Sour Gum = assay: Field trial, stomach poison test; assay type: in vivo
Procedure: as §1, §2, §3

Citrus Rust Mite (CRM) = assay: Miticide test, acute mortality, foliar spray; assay type: in vivo; conditions: after 72 hours
Procedure: Citrus cuttings were obtained and prepared for testing within 24 hours prior to inoculation with citrus rust mites. To prepare the cuttings, terminals of branches 12 to 14 inches in length were cut from temple orange trees, immediately placed in tap water and taken into the laboratory. Uniform hardwood cuttings, 3 to 4 inches in length, were cut from the branches, all but one hardened leaf was removed from the cuttings, and the remaining leaf was wiped clean with a cotton pad soaked in 10% ethanol solution. Each cutting was immediately placed in tap water in a test tube with the closed leaf extending out of the test tube. Then, a ring of melted lanolin was applied around the petiole to prevent migration of mites from the leaf. One cutting was used for each replicate.
When the leaves were dry immediately after cleaning, citrus rust mites were transferred to the test leaves by cutting a heavily infested colony leaf (from a source colony maintained on citrus seedlings) into 20 to 22 sections (approximately 0.25 by 0.5 inches in size) and using forceps to place 1 section on each leaf cutting. As the section became desiccated the mites moved to the whole leaf and in 20 hours the sections were removed from the leaves for treatment application.
Treatments were applied within 24 hours after inoculation by removing the cuttings from the test tube and submerging the leaves in the treatment solution for 5 seconds by hand and immediately returning the cutting to the test tube. […]
as §8

[8] = tested on: Potato Flea Beetle Adults; assay: Field trial, contact poison test; assay type: in vivo
From the text: as §6, §7, §4, §3

Bean Leaf Beetle [9] = assay: Field trial, contact poison test; assay type: in vivo
From the text: as §6, §7, §4, §3

[10] = tested on: Red-Legged Grasshopper Adults; assay: Field trial, stomach poison test; assay type: in vivo
Procedure: as §1, §2, §3

[11] = tested on: Potato Flea Beetle Adults; assay: Field trial, stomach poison test; assay type: in vivo
Procedure: as §1, §2, §3

Bean Leaf Beetle [12] = assay: Field trial, stomach poison test; assay type: in vivo
Procedure: as §1, §2, §3

Picnic Beetle = assay: Field trial (first summer), topical; assay type: in vivo; conditions: .078125 μg/μl
Procedure: as §5
(§9) During the previous summer similar field trials were conducted employing the same tests as heretofore but with some additional species of insects not included in the later tests. The results listed below are for tests in which an insect mortality was established by a given application route and at a given concentration in a particular test. The same 0 - 9 scoring system is used as is the designation of compounds by alphabetical symbols.

Confused Flour Beetle = assay: Field trial (first summer), topical; assay type: in vivo; conditions: .078125 μg/μl
Procedure: as §5, §9

Boll Weevil = assay: Field trial (first summer), topical; assay type: in vivo, Anthonomus grandis; conditions: .15625 μg/μl
Procedure: as §5, §9

`CCOC(=O)n1c(C(F)(F)F)nc2c([N+](=O)[O-])cc(C(F)(F)F)cc21` [U, ethyl 4-nitro-2,6-bis(trifluoromethyl)benzimidazolecarboxylate] was tested, and the average mortality rating ([1]; 10 ppm) was 3, the average mortality rating ([1]; 25 ppm) was 7 and the average mortality rating ([1]; 50 ppm) was 9 (91-100 percent mortality). For the same compound, the average mortality rating ([2]; 10 ppm) was 0 (0-10 percent), the average mortality rating ([2]; 25 ppm) was 1 and the average mortality rating ([2]; 50 ppm) was 6. It also gave an average mortality rating ([3]; 10 ppm) of 2, an average mortality rating ([3]; 25 ppm) of 1 and an average mortality rating ([3]; 50 ppm) of 4. The average mortality rating ([3]; 100 ppm) was 9 (91-100 percent mortality), the average mortality rating ([4]; 25 ppm) was 5 and the average mortality rating ([4]; 50 ppm) was 3. It also gave an average mortality rating ([4]; 100 ppm) of 3, an average mortality rating (Yellow Mealworm Larvae; 0.03 μg/μl) of 4 and an average mortality rating (Yellow Mealworm Larvae; 0.07 μg/μl) of 4. For the same compound, the average mortality rating (Yellow Mealworm Larvae; 0.15 μg/μl) was 6, the average mortality rating ([5]; 25 ppm) was 9 (91-100 percent mortality) and the average mortality rating ([5]; 50 ppm) was 9 (91-100 percent mortality). The average mortality rating ([6]; 25 ppm) was 4, the average mortality rating ([6]; 50 ppm) was 9 (91-100 percent mortality) and the average mortality rating ([6]; 100 ppm) was 9 (91-100 percent mortality). It also gave an acute mortality rating ([7]; 6.25 ppm) of 1, an acute mortality rating ([7]; 12.5 ppm) of 3 and an acute mortality rating ([7]; 25 ppm) of 8. The acute mortality rating ([7]; 50 ppm) was 8, the acute mortality rating ([7]; 100 ppm) was 9 (91-100 percent mortality) and the average mortality rating (Squash Bug Adults; 125 ppm) was 5. It also gave an average mortality rating (Squash Bug Adults; 250 ppm) of 5, an average mortality rating (Squash Bug Adults; 500 ppm) of 7 and an average mortality rating (Squash Bug Adults; 750 ppm) of 7. It also gave an average mortality rating (Meadow Spittlebug; 10 ppm) of 5, an average mortality rating (Meadow Spittlebug; 25 ppm) of 5 and an average mortality rating (Meadow Spittlebug; 50 ppm) of 3. The average mortality rating (Meadow Spittlebug; 100 ppm) was 0 (0-10 percent), the average mortality rating (Aphids - Tulip Tree; 25 ppm) was 6 and the average mortality rating (Aphids - Tulip Tree; 50 ppm) was 8. The average mortality rating (Aphids - Tulip Tree; 100 ppm) was 9 (91-100 percent mortality), the average mortality rating (Aphids - Apple; 25 ppm) was 2 and the average mortality rating (Aphids - Apple; 50 ppm) was 4. The average mortality rating (Aphids - Apple; 100 ppm) was 6, the average mortality rating (Aphids - Sour Gum; 25 ppm) was 9 (91-100 percent mortality) and the average mortality rating (Aphids - Sour Gum; 50 ppm) was 7. For the same compound, the average mortality rating (Aphids - Sour Gum; 100 ppm) was 9 (91-100 percent mortality), the acute mortality rating (Citrus Rust Mite (CRM); 6.25 ppm) was 1 and the acute mortality rating (Citrus Rust Mite (CRM); 12.5 ppm) was 1. The acute mortality rating (Citrus Rust Mite (CRM); 25 ppm) was 9 (91-100 percent mortality), the acute mortality rating (Citrus Rust Mite (CRM); 50 ppm) was 9 (91-100 percent mortality) and the acute mortality rating (Citrus Rust Mite (CRM); 100 ppm) was 8.

With `O=[N+]([O-])c1cc(C(F)(F)F)cc2nc(C(F)F)[nH]c12` [Q, 2-difluoromethyl-4-nitro-6-trifluoromethylbenzimidazole] the average mortality rating ([3]; 10 ppm) was 2, the average mortality rating ([3]; 25 ppm) was 3 and the average mortality rating ([3]; 50 ppm) was 2. It also gave an average mortality rating ([3]; 100 ppm) of 2, an average mortality rating (Yellow Mealworm Larvae; 0.03 μg/μl) of 1 and an average mortality rating (Yellow Mealworm Larvae; 0.07 μg/μl) of 4. The average mortality rating (Yellow Mealworm Larvae; 0.15 μg/μl) was 7, the average mortality rating ([5]; 10 ppm) was 0 (0-10 percent) and the average mortality rating ([5]; 25 ppm) was 4. For the same compound, the average mortality rating ([5]; 50 ppm) was 5, the average mortality rating ([8]; 10 ppm) was 3 and the average mortality rating ([8]; 25 ppm) was 6. The average mortality rating ([8]; 50 ppm) was 8, the average mortality rating (Bean Leaf Beetle [9]; 25 ppm) was 0 (0-10 percent) and the average mortality rating (Bean Leaf Beetle [9]; 50 ppm) was 0 (0-10 percent). The average mortality rating (Bean Leaf Beetle [9]; 100 ppm) was 0 (0-10 percent), the average mortality rating ([10]; 10 ppm) was 1 and the average mortality rating ([10]; 25 ppm) was 1. For the same compound, the average mortality rating ([10]; 50 ppm) was 5, the average mortality rating ([11]; 5 ppm) was 0 (0-10 percent) and the average mortality rating ([11]; 10 ppm) was 1. For the same compound, the average mortality rating ([11]; 25 ppm) was 1, the average mortality rating ([11]; 50 ppm) was 5 and the average mortality rating (Bean Leaf Beetle [12]; 10 ppm) was 0 (0-10 percent). For the same compound, the average mortality rating (Bean Leaf Beetle [12]; 25 ppm) was 0 (0-10 percent), the average mortality rating (Bean Leaf Beetle [12]; 50 ppm) was 0 (0-10 percent) and the insect mortality rating (Picnic Beetle) was 9 (91-100 percent mortality). For the same compound, the insect mortality rating (Confused Flour Beetle) was 7 and the insect mortality rating (Boll Weevil) was 5.
